These results are taken from patent publication US20220073525A1, “COMPOSITIONS FOR INHIBITING UBIQUITIN SPECIFIC PROTEASE 1” (FORMA Therapeutics, Inc., priority 2019, published 2022).

Molecules are shown by their SMILES. Bounds are passed on as bounds.

Sequence of USP1 (O94782 whole entry): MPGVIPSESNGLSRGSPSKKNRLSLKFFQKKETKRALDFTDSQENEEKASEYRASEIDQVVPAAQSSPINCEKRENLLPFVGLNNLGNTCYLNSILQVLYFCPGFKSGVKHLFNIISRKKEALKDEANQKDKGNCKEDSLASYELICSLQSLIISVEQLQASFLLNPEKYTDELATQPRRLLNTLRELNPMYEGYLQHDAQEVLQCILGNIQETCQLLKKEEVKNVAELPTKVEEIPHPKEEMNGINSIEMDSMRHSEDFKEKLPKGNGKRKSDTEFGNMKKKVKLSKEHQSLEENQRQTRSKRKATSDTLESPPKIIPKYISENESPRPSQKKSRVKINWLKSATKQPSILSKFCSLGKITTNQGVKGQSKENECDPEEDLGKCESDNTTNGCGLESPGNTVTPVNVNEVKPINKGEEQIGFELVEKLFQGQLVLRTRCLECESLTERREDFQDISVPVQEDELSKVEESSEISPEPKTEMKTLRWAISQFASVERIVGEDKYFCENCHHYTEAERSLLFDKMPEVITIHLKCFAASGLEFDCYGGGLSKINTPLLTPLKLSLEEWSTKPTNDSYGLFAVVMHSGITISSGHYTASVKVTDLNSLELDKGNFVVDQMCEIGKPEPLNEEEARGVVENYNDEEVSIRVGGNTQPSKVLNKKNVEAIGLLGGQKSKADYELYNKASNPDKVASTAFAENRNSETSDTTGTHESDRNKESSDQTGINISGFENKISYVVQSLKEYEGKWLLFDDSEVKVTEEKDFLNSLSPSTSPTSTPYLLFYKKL
Sequence of USP1 (Q8TAF3 whole entry partner): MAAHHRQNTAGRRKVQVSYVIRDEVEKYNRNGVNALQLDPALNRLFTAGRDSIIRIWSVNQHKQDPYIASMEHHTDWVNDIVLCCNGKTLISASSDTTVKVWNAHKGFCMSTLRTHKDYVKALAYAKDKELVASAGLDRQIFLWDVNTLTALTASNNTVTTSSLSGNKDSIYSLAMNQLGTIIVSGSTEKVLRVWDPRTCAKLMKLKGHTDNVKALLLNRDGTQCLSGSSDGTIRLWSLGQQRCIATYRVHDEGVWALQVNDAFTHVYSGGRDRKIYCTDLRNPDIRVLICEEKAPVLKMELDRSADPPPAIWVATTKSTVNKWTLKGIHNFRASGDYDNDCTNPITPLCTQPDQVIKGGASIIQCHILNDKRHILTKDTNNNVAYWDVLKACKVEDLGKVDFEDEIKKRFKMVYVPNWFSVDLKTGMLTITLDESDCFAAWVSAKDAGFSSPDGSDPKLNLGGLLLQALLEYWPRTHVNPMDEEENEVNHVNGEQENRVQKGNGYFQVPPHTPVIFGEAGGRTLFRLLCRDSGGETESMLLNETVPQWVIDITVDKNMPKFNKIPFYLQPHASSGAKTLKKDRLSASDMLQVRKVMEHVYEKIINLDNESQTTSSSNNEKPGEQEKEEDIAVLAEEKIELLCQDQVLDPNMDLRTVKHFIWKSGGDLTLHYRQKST

For this experiment, the target named is USP1 (Homo sapiens, UniProt O94782). Put plainly: Biochemical Assay for USP1 Inhibition (Ub-Rho 110 fluorescence). The settings on record: Table 5; 30 min preincubation, Enzyme 0.025 nM, Substrate Ub-Rho 110 25 nM; read-out: IC50 (μm). As for the experimental part:
The assay was performed in a final volume of 6 μL in assay buffer containing 20 mM Tris-HCl pH 8.0, (1 M Tris-HCl, pH 8.0 solution; Corning 46-031-CM), 1 mM GSH (L-glutathione reduced, Sigma-Aldrich, G4251-100G), 0.03% BGG (0.22 μM filtered, Sigma, G7516-25G), and 0.01% Triton X-100 (Sigma, T9284-10L). Nanoliter quantities of 10-point, 3-fold serial dilution in DMSO were pre-dispensed into 1536 assay plates (Corning, #3724BC) for a final test concentration of 25 μM to 1.3 nM, top to lowest dose, respectively. Concentration and incubation times were optimized for the maximal signal-to-background while maintaining initial velocity conditions at a fixed substrate concentration (<<Km). 3 μL of 2× Enzyme was added to assay plates (pre-stamped with compound), preincubated for 30 min, and then treated with 3 μL of 2× Substrate (Ub-Rho 110, UbiQ-126). Final concentrations of Enzyme and Substrate are 0.025 nM and 25 nM, respectively. Plates were read using a kinetic protocol continuously for 11 min on the Envision (Perkin Elmer) or PheraSTAR (BMG), excitation at 485 nm and emission at 535 nm or excitation at 520 nm and emission at 590 nm. For all assay formats, data were reported as percent inhibition compared with control wells based on the following equation: % inh=100*([…]), where FLU=measured Fluorescence, AveLow=average Fluorescence of no enzyme control (n=32), and AveHigh=average Fluorescence of DMSO control (n=32). IC50 values were determined by curve fitting of the standard 4 parameter logistic fitting algorithm included in the Activity Base software package: TDBS XE Designer Model205. Data is fitted using the Levenburg Marquardt algorithm.
In Table 5, absolute stereochemistry has not been determined for some Compounds. Accordingly, assignment ofany Compounds as the “R” or “S” stereoisomer is arbitrary, unless otherwise noted. In some cases, Compounds are labeled with “1st eluting isomer”, “2nd eluting isomer”, etc. based on the purification method used to separate the stereoisomers.
Regarding `Cc1nc(-c2cccnc2C(C)C)c2n1CCN(c1ccc(-n3ccnc3)cc1)C2` [Compound 47, 3-{7-[4-(1H-imidazol-1-yl)phenyl]-3-methyl-5H,6H,7H,8H-imidazo[1,5-a]pyrazin-1-yl}-2-(propan-2-yl)pyridine], the concentration for half-maximal inhibition (IC50) was greater than 25 µM.

With `CNC(=O)c1ccc(N2CCn3c(C)nc(-c4cccnc4C(C)C)c3C2)c(F)c1` [Compound 48, 3-fluoro-N-methyl-4-{3-methyl-1-[2-(propan-2-yl)pyridin-3-yl]-5H,6H,7H,8H-imidazo[1,5-a]pyrazin-7-yl}benzamide], the IC50 is greater than 25 µM.

`Cc1nc(-c2cccnc2C(C)C)c2n1CCN(c1ccc(C(=O)N(C)C)cc1F)C2` [Compound 49, 3-fluoro-N,N-dimethyl-4-{3-methyl-1-[2-(propan-2-yl)pyridin-3-yl]-5H,6H,7H,8H-imidazo[1,5-a]pyrazin-7-yl}benzamide]: the IC50 is 10 to 25 µM.

With `Cc1nc(-c2cccnc2C(C)C)c2n1CCN(c1ccc(C(=O)N(C)C)cc1)C2` [Compound 50, N,N-dimethyl-4-{3-methyl-1-[2-(propan-2-yl)pyridin-3-yl]-5H,6H,7H,8H-imidazo[1,5-a]pyrazin-7-yl}benzamide], the IC50 lay within 10 to 25 µM.

With `Cc1nc(-c2cccnc2C(C)C)c2n1CCN(c1ccc(C(=O)NCc3ccc(-n4ccc(C(F)(F)F)n4)cc3)cc1)C2` [Compound 53, 4-{3-methyl-1-[2-(propan-2-yl)pyridin-3-yl]-5H,6H,7H,8H-imidazo[1,5-a]pyrazin-7-yl}-N-({4-[3-(trifluoromethyl)-1H-pyrazol-1-yl]phenyl}methyl)benzamide], the 50% inhibitory concentration (IC50) was 1 to 10 µM.

As for `Cc1nc(-c2cccnc2C(C)C)c2n1CCN(c1ccc(C(=O)N3CCC[C@H]3C)cc1)C2` [Compound 54-1, 3-(3-methyl-7-{4-[(2R)-2-methylpyrrolidine-1-carbonyl]phenyl}-5H,6H,7H,8H-imidazo[1,5-a]pyrazin-1-yl)-2-(propan-2-yl)pyridine], the IC50 lay in the range of 10 to 25 µM.

For `Cc1nc(-c2cccnc2C(C)C)c2n1CCN(c1ccc(C(=O)N3CCC[C@@H]3C)cc1)C2` [Compound 55, 3-(3-methyl-7-{4-[(2S)-2-methylpyrrolidine-1-carbonyl]phenyl}-5H,6H,7H,8H-imidazo[1,5-a]pyrazin-1-yl)-2-(propan-2-yl)pyridine], the 50% inhibitory concentration (IC50) was 1 to 10 µM.

Turning to `Cc1nc(-c2cccnc2C(C)C)c2n1C(C)CN(c1ccc(-c3nc(C(F)(F)F)cn3C)cc1)C2` (stereo not drawn) [Compound 56, 3-(3,5-dimethyl-7-{4-[1-methyl-4-(trifluoromethyl)-1H-imidazol-2-yl]phenyl}-5H,6H,7H,8H-imidazo[1,5-a]pyrazin-1-yl)-2-(propan-2-yl)pyridine], the half-inhibitory concentration (IC50) is no more than 1 µM.

Regarding `Cc1nc(-c2cccnc2C(C)C)c2n1CCN(c1ccc(C(=O)NCC3CC3)cc1)C2` [Compound 57, N-(cyclopropylmethyl)-4-{3-methyl-1-[2-(propan-2-yl)pyridin-3-yl]-5H,6H,7H,8H-imidazo[1,5-a]pyrazin-7-yl}benzamide], the half-inhibitory concentration (IC50) is greater than 25 µM.

Regarding `Cc1nc(-c2cccnc2C(C)C)c2n1CCN(c1ccc(C(=O)N(C)CC(F)(F)F)cc1)C2` [Compound 58, N-methyl-4-{3-methyl-1-[2-(propan-2-yl)pyridin-3-yl]-5H,6H,7H,8H-imidazo[1,5-a]pyrazin-7-yl}-N-(2,2,2-trifluoroethyl)benzamide], the half-inhibitory concentration (IC50) lay in the range of 1 to 10 µM.

As for `Cc1nc(-c2cccnc2C(C)C)c2n1CCN(c1ccc(NC(=O)C3CC3)cc1)C2` [Compound 59, N-(4-{3-methyl-1-[2-(propan-2-yl)pyridin-3-yl]-5H,6H,7H,8H-imidazo[1,5-a]pyrazin-7-yl}phenyl)cyclopropanecarboxamide], the IC50 is 1 to 10 µM.

With `Cc1nc(-c2cccnc2C(C)C)c2n1CCN(c1cccc(C(=O)N(C)C3CC3)c1)C2` [Compound 60, N-cyclopropyl-N-methyl-3-{3-methyl-1-[2-(propan-2-yl)pyridin-3-yl]-5H,6H,7H,8H-imidazo[1,5-a]pyrazin-7-yl}benzamide], the IC50 is greater than 25 µM.
